Starred links: 1 amine or outer side, 2 acyl side, 3 side chain; linkers in the order of their positions; H or OH if unused. Positions of bridges follow the written chain, without caps; N, C: chain ends. Non-standard residues stand in square brackets, D forms with d. Residues, ends and D or L forms follow the SMILES beside them. *: point of attachment. hPhe(3-Cl-4-CF3) = N[C@@H](CCc1ccc(C(F)(F)F)c(Cl)c1)C(=O)O; hPhe(4-CF3) = N[C@@H](CCc1ccc(C(F)(F)F)cc1)C(=O)O; Pro(cis-4-Ph) = O=C(O)[C@@H]1C[C@H](c2ccccc2)CN1; NMePhe(4-Cl) = CN[C@@H](Cc1ccc(Cl)cc1)C(=O)O; Phe(3,5-F2) = N[C@@H](Cc1cc(F)cc(F)c1)C(=O)O; NMedβ3hAla = C[C@H](CC(=O)[*:2])N(C)[*:1]; Phe(3-Cl) = N[C@@H](Cc1cccc(Cl)c1)C(=O)O; NMeGly(cPent) = CN[C@H](C(=O)O)C1CCCC1; NMehPhe = CN[C@@H](CCc1ccccc1)C(=O)O; NMe3Pal = CN[C@@H](Cc1cccnc1)C(=O)O; NMeCha = CN[C@@H](CC1CCCCC1)C(=O)O; NMeChg = CN[C@H](C(=O)O)C1CCCCC1; NMeF = CN[C@@H](Cc1ccccc1)C(=O)O; N(CH2CH2)2CF2 = FC1(F)CCN(*)CC1; NMeD = CN[C@@H](CC(=O)O)C(=O)O; NMeL = CN[C@@H](CC(C)C)C(=O)O; NMeV = CN[C@H](C(=O)O)C(C)C; Azetidin(1-yl) = C1CN(*)C1; NMeS = CN[C@@H](CO)C(=O)O; Morpholide = C1CN(*)CCO1; NMeA = CN[C@@H](C)C(=O)O; Piperidide = C1CCN(*)CC1; Pyrrolidide = C1CCN(*)C1; Ac5c = NC1(C(=O)O)CCCC1; Aze = O=C(O)[C@@H]1CCN1; CH2CMe2OH = CC(C)(O)C*; Aib = CC(C)(N)C(=O)O; Isopentyl = CC(C)CC*; Sar = CNCC(=O)O
Each compound was assayed against T1, Kras and SOS1 (biotin-tagged human Kras loaded with GDP, His-tagged human SOS1) (Homo sapiens, UniProt P01116, G12D) (assay: Protein-protein interaction inhibition between Kras and SOS1 (KrasGl2D-SOS PPI) using AlphaScreen). Settings: AlphaScreen; biotin-tagged human Kras loaded with GDP, His-tagged human SOS1; read-out: KRAS G12D-SOS PPI IC50.
T1 construct: made in house; host or cells: E. coli (stated for Kras only)
Format: binding
How it was run: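 Energy transfer from nickel-chelate donor beads bound to His-SOS1 to streptavidin acceptor beads bound to biotin-Kras, expressed in E. coli and loaded with GDP after purification, was monitored. Donors were excited at 680 nm; singlet oxygen reaching acceptors gave emission read at 520-620 nm.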

T1 sequence (P01116 1-188 isoform P01116-2 G12D): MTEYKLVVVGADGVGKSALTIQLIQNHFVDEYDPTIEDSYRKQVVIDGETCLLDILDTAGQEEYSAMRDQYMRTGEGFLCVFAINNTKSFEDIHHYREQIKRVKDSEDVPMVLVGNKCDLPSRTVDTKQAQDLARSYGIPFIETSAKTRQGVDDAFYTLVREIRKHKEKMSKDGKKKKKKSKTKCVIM

Structure (SMILES)	IC50 [nM]
CC[C@H](C)[C@@H]1NC(=O)[C@H](CC(C)C)N(C)C(=O)C[C@@H](C(=O)N2CCCCC2)N(C)C(=O)[C@H](CC(C)C)N(C)C(=O)C(C)(C)NC(=O)[C@H](COCC(C)(C)O)N(C)C(=O)[C@H](CCc2ccc(C(F)(F)F)c(Cl)c2)NC(=O)CN(C)C(=O)[C@H](COCCC(C)C)N(C)C(=O)CN(C)C(=O)CN(C)C1=O [Compound 1541] ([NMeL]I[Sar][Sar][NMeS](Isopentyl)[Sar][hPhe(3-Cl-4-CF3)][NMeS](CH2CMe2OH)[Aib][NMeL][NMeD]-Piperidide; lactam N-11)	4
CC[C@H](C)[C@@H]1NC(=O)[C@H](C)N(C)C(=O)C[C@@H](C(=O)N2CCCC2)NC(=O)[C@H](C(C)C)N(C)C(=O)[C@H](Cc2ccccc2)N(C)C(=O)[C@H](C)NC(=O)[C@H](Cc2cccc(Cl)c2)NC(=O)CN(C)C(=O)[C@H](Cc2ccc(Cl)cc2)N(C)C(=O)CN(C)C(=O)CN(C)C1=O [Compound 612] ([NMeA]I[Sar][Sar][NMePhe(4-Cl)][Sar][Phe(3-Cl)]A[NMeF][NMeV]D-Pyrrolidide; lactam N-11)	120
CC[C@H](C)[C@@H]1NC(=O)[C@H](CC(C)C)N(C)C(=O)C[C@@H](C)N(C)C(=O)[C@H](C2CCCC2)N(C)C(=O)C2(CCCC2)NC(=O)[C@H](CC(=O)N2CCC(F)(F)CC2)N(C)C(=O)[C@H](CCc2ccc(C(F)(F)F)c(Cl)c2)NC(=O)CN(C)C(=O)[C@H](CC2CCCCC2)N(C)C(=O)[C@@H]2CCN2C(=O)[C@H](C)N(C)C1=O [Compound 777] (cyclo([Ac5c][NMeGly(cPent)][NMedβ3hAla][NMeL]I[NMeA][Aze][NMeCha][Sar][hPhe(3-Cl-4-CF3)][NMeD](N(CH2CH2)2CF2)))	330
CC[C@H](C)[C@@H]1NC(=O)[C@H](CC(C)C)N(C)C(=O)C[C@@H](C(=O)N2CCCCC2)N(C)C(=O)[C@H](C2CCCCC2)N(C)C(=O)C2(CCCC2)NC(=O)[C@@H]2C[C@H](c3ccccc3)CN2C(=O)[C@H](CCc2ccc(C(F)(F)F)c(Cl)c2)NC(=O)CN(C)C(=O)[C@H](CC2CCCCC2)N(C)C(=O)[C@@H]2CCCN2C(=O)CN(C)C1=O [Compound 1096] ([NMeL]I[Sar]P[NMeCha][Sar][hPhe(3-Cl-4-CF3)][Pro(cis-4-Ph)][Ac5c][NMeChg][NMeD]-Piperidide; lactam N-11)	2.6
CC[C@H](C)[C@@H]1NC(=O)[C@H](CC(C)C)N(C)C(=O)C[C@@H](C(=O)N(C)C)N(C)C(=O)[C@H](C2CCCC2)N(C)C(=O)[C@H](C)NC(=O)[C@H](C)N(C)C(=O)[C@H](CCc2ccc(C(F)(F)F)c(Cl)c2)NC(=O)CN(C)C(=O)[C@H](CC2CCCCC2)N(C)C(=O)[C@@H]2CCN2C(=O)[C@H](C)N(C)C1=O [Compound 993] ([NMeL]I[NMeA][Aze][NMeCha][Sar][hPhe(3-Cl-4-CF3)][NMeA]A[NMeGly(cPent)][NMeD]-NMe2; lactam N-11)	16
CC[C@H](C)[C@@H]1NC(=O)[C@H](C)N(C)C(=O)C[C@@H](C(=O)N2CCCC2)NC(=O)[C@H](CC(C)C)N(C)C(=O)[C@H](CCc2ccccc2)N(C)C(=O)[C@H](CC(C)C)NC(=O)[C@H](CCc2ccc(C(F)(F)F)cc2)NC(=O)CN(C)C(=O)[C@H](Cc2ccc(Cl)cc2)N(C)C(=O)CN(C)C(=O)CN(C)C1=O [Compound 878] ([NMeA]I[Sar][Sar][NMePhe(4-Cl)][Sar][hPhe(4-CF3)]L[NMehPhe][NMeL]D-Pyrrolidide; lactam N-11)	320
CC[C@H](C)[C@@H]1NC(=O)[C@H](C)N(C)C(=O)C[C@@H](C(=O)N2CCOCC2)N(C)C(=O)[C@H](C2CCCCC2)N(C)C(=O)C2(CCCC2)NC(=O)[C@H](Cc2cccnc2)N(C)C(=O)[C@H](CCc2ccc(C(F)(F)F)c(Cl)c2)NC(=O)CN(C)C(=O)[C@H](CC2CCCCC2)N(C)C(=O)[C@@H]2CCN2C(=O)CN(C)C1=O [Compound 1703] ([NMeA]I[Sar][Aze][NMeCha][Sar][hPhe(3-Cl-4-CF3)][NMe3Pal][Ac5c][NMeChg][NMeD]-Morpholide; lactam N-11)	0.41
CC[C@H](C)[C@@H]1NC(=O)[C@H](CC(C)C)N(C)C(=O)C[C@@H](C(=O)N2CCC2)N(C)C(=O)[C@H](C2CCCC2)N(C)C(=O)C2(CCCC2)NC(=O)[C@H](CC(=O)N2CCC(F)(F)CC2)N(C)C(=O)[C@H](CCc2ccc(C(F)(F)F)c(Cl)c2)NC(=O)CN(C)C(=O)[C@H](CC2CCCCC2)N(C)C(=O)[C@@H]2CCN2C(=O)[C@H](C)N(C)C1=O [Compound 719] ([NMeL]I[NMeA][Aze][NMeCha][Sar][hPhe(3-Cl-4-CF3)][NMeD](N(CH2CH2)2CF2)[Ac5c][NMeGly(cPent)][NMeD]-{Azetidin(1-yl)}; lactam N-11)	5.9
CC[C@H](C)[C@@H]1NC(=O)[C@H](C)N(C)C(=O)C[C@@H](C(=O)N2CCCC2)NC(=O)[C@H](C(C)C)N(C)C(=O)[C@H](Cc2ccccc2)N(C)C(=O)[C@H](Cc2ccccc2)NC(=O)[C@H](Cc2cc(F)cc(F)c2)NC(=O)CN(C)C(=O)[C@H](Cc2ccc(Cl)cc2)N(C)C(=O)CN(C)C(=O)CN(C)C1=O [Compound 21] ([NMeA]I[Sar][Sar][NMePhe(4-Cl)][Sar][Phe(3,5-F2)]F[NMeF][NMeV]D-Pyrrolidide; lactam N-11)	250
